Measured values: patent publication US10864197B2, “Biphenyl sulfonamide compounds for the treatment of kidney diseases or disorders” (Retrophin, Inc., priority 2016, dated 2020)

How the values were obtained:
[1] = DUET trial: eGFR and serum markers; assay type: in vivo, human; settings: double-blind period
Excerpt: (§1) DUET trial is a phase 2, double-blind, randomized, active-control, dose-escalation study (NCT01613118) that evaluates the efficacy and safety of sparsentan as a treatment for primary focal segmental glomerulosclerosis (FSGS), a rare disorder characterized by massive proteinuria and progressive loss of kidney function. Patients (ranging in age from 8 years to 75 years) with biopsy-proven primary FSGS (or documentation of a genetic mutation in a podocyte protein associated with the disease) having baseline urine protein to creatinine (“UP/C”) ratios greater than 1 g/g and estimated glomerular filtration rates greater than 30 ml/min were eligible for the study. The inclusion criteria also included a mean seated blood pressure >[…] and <145/96 mmHg for patients aged 18 years or older, or, for patients aged <18 years of age, a mean seated blood pressure of >90/60 mmHg and <95th percentile for age, gender, and height. The inclusion criteria included an allowance for a stable dose of immunosuppressive medication for ≥1 month. Exclusion criteria included secondary FSGS; significant medical conditions related to cardiac, hepatic, or immune function; body mass index >[…] for adults or in the 99th percentile plus 5 for pediatric patients; hematocrit <27% or hemoglobin <[…]; serum potassium >5.5 mEq/L; and women who were pregnant, breastfeeding, or of child-bearing potential who were unwilling to use two methods of contraception.
(§2) Patients who signed consent and met all inclusion and exclusion criteria during the screening phase underwent a 2-week angiotensin receptor blocker (ARB) and angiotensin converting enzyme (ACE) inhibitor washout period before being randomly assigned to one of the three escalating dose cohorts receiving sparsentan (200 mg/day; 400 mg/day; and 800 mg/day) or a fixed maximal dose of active control (the ARB irbesartan, at 300 mg/day) in a 3:1 ratio within each cohort. The primary endpoint was the change in UP/C ratio (determined as a measure of urinary protein excretion) from baseline. The proportion of patients achieving UP/C ratio ≤1.5 g/g with >40% reduction in UP/C ratio at Week 8, a modified responder analysis, was evaluated as secondary endpoint.

[2] = DUET trial: treatment emergent adverse events and edema severity; assay type: in vivo, human; settings: for Patients with Edema, Severity Grade 0 / Patients with Edema, Severity Grade 1+ to 2+ / Patients with Edema, Severity Grade 3+ to 4+ / Percent of patients having treatment emergent adverse effects: Any / Percent of patients having treatment emergent adverse effects: Drug-related / Percent of patients having treatment emergent adverse effects: Leading to dose change or interruption / Percent of patients having treatment emergent adverse effects: Leading to drug discontinuation / Percent of patients having treatment emergent adverse effects: Leading to study withdrawal / Percent of patients having treatment emergent adverse effects: Serious / Percent of patients with Cough / Percent of patients with Diarrhea / Percent of patients with Dizziness / Percent of patients with Edema/edema peripheral / Percent of patients with Fatigue / Percent of patients with Headache / Percent of patients with Hypotension/orthostatic hypotension / Percent of patients with Muscle spasms / Percent of patients with Nasal congestion / Percent of patients with Nausea / Percent of patients with Upper abdominal pain / Percent of patients with Upper respiratory tract infection / Percent of patients with Vomiting: human, in vivo; for Percent of patients having treatment emergent adverse effects: Death: irbesartan n=36, sparsentan all doses n=73
Excerpt: as §1, §2
The incidences of specific treatment emergent adverse events for which the incidence was greater than 5% across all patients are shown in Table 7. Symptoms such as headache, dizziness, and edema may be associated with hypotension and some of those symptoms were more frequent in patients treated with sparsentan relative to those patients treated with irbesartan. However, there was no significant different between irbesartan-treated patients and sparsentan-treated patients in the worsening of existing edema (Table 8).

| Compound | change in N-terminal pro-B-type natriuretic peptide [1] | change in albumin [1] | change in eGFR [1] | change in serum potassium [1] | Patients with Edema, Severity Grade 0 [2] [%] | Patients with Edema, Severity Grade 1+ to 2+ [2] [%] | Patients with Edema, Severity Grade 3+ to 4+ [2] [%] | Patients with Edema, Severity Grade 0 ([2]; 8 weeks) [%] | Patients with Edema, Severity Grade 1+ to 2+ ([2]; 8 weeks) [%] | Patients with Edema, Severity Grade 3+ to 4+ ([2]; 8 weeks) [%] | Percent of patients having treatment emergent adverse effects: Any ([2]; 8 weeks) [%] | Percent of patients having treatment emergent adverse effects: Drug-related ([2]; 8 weeks) [%] | Percent of patients having treatment emergent adverse effects: Leading to dose change or interruption ([2]; 8 weeks) [%] | Percent of patients having treatment emergent adverse effects: Leading to drug discontinuation ([2]; 8 weeks) [%] | Percent of patients having treatment emergent adverse effects: Leading to study withdrawal ([2]; 8 weeks) [%] | Percent of patients having treatment emergent adverse effects: Serious ([2]; 8 weeks) [%] | Percent of patients with Cough ([2]; 8 weeks) [%] | Percent of patients with Diarrhea ([2]; 8 weeks) [%] | Percent of patients with Dizziness ([2]; 8 weeks) [%] | Percent of patients with Edema/edema peripheral ([2]; 8 weeks) [%] | other results |
| --- | --- | --- | --- | --- | --- | --- | --- | --- | --- | --- | --- | --- | --- | --- | --- | --- | --- | --- | --- | --- | --- |
| CCCCC1=NC2(CCCC2)C(=O)N1Cc1ccc(-c2ccccc2-c2nnn[nH]2)cc1 [Irbesartan, irbesartan, reference compound] | no significant change or difference | no significant change or difference | no significant change or difference | no significant change or difference | 76 | 21 | 3 | 86 | 14 | 0 | 72.2 | 36.1 | 8.3 | 2.8 | 2.8 | 2.8 | 5.6 | 2.8 | 11.1 | 2.8 | Percent of patients with Fatigue ([2]; 8 weeks): 11.1%; Percent of patients with Headache ([2]; 8 weeks): 19.4%; Percent of patients with Hypotension/orthostatic hypotension ([2]; 8 weeks): 8.3%; Percent of patients with Muscle spasms ([2]; 8 weeks): 5.6%; Percent of patients with Nasal congestion ([2]; 8 weeks): 11.1%; Percent of patients with Nausea ([2]; 8 weeks): 8.3%; Percent of patients with Upper abdominal pain ([2]; 8 weeks): 5.6%; Percent of patients with Upper respiratory tract infection ([2]; 8 weeks): 5.6%; Percent of patients with Vomiting ([2]; 8 weeks): 2.8%; Percent of patients having treatment emergent adverse effects: Death [2]: 0% |
| CCCCC1=NC2(CCCC2)C(=O)N1Cc1ccc(-c2ccccc2S(=O)(=O)Nc2noc(C)c2C)c(COCC)c1 [Sparsentan, 4′-((2-butyl-4-oxo-1,3-diazaspiro[4.4]non-1-en-3-yl)methyl)-N-(4,5-dimethylisoxazol-3-yl)-2′-(ethoxymethyl)-[1,1′-biphenyl]-2-sulfonamide] | no significant change or difference | no significant change or difference | no significant change or difference | no significant change or difference | 66 | 32 | 2 | 65 | 30 | 5 | 76.7 | 43.8 | 23.3 | 4.1 | 2.7 | 2.7 | 4.1 | 8.2 | 13.7 | 12.3 | Percent of patients with Fatigue ([2]; 8 weeks): 4.1%; Percent of patients with Headache ([2]; 8 weeks): 19.2%; Percent of patients with Hypotension/orthostatic hypotension ([2]; 8 weeks): 16.4%; Percent of patients with Muscle spasms ([2]; 8 weeks): 0%; Percent of patients with Nasal congestion ([2]; 8 weeks): 2.7%; Percent of patients with Nausea ([2]; 8 weeks): 12.3%; Percent of patients with Upper abdominal pain ([2]; 8 weeks): 5.5%; Percent of patients with Upper respiratory tract infection ([2]; 8 weeks): 2.7%; Percent of patients with Vomiting ([2]; 8 weeks): 8.2%; Percent of patients having treatment emergent adverse effects: Death [2]: 0% |
